These results are taken from article PMC11394167, “Purification and Identification of Novel Dipeptidyl Peptidase IV Inhibitory Peptides Derived from Bighead Carp (Hypophthalmichthys nobilis)” (Foods, 2024).

Series [1] deals with T1, DPP-IV (Homo sapiens, UniProt P27487).
T1 construct: purchased Abnova KA1311
The following applies: cited from earlier work. From the text: Diabetes is a chronic disease marked by high blood sugar levels and disruptions in fat and protein metabolism due to insulin resistance and deficiency. It is categorized into three types: type 1, type 2, and gestational diabetes. As reported by the International Diabetes Federation (IDF), approximately 537 million adults (aged 20–79 years) were living with diabetes in 2021, a number expected to rise to 700 million by 2045 [7]. Type 2 diabetes mellitus (T2DM) constitutes about 90% of these cases. Without treatment, T2DM can lead to severe complications such as coronary issues, retinopat ... || The results of mass spectrometry identification guided the screening of peptide sequences based on certain criteria. […] In the current landscape of research aiming to identify DPP-IV inhi ...

Series [2] addresses T1, DPP-IV. Kind of series: DPP-IV inhibitor screening assay (KA1311 kit, Gly-Pro-AMC). The class given is biochemical. As to conditions: synthetic peptides; 37 °C, 30 min; Gly-Pro-AMC substrate; fluorescence ex 350 nm / em 460 nm; mean ± standard deviation (n = 3); read-out: IC50 (DPP-IV inhibition). Here is the method:
The DPP-IV inhibition rate and the corresponding IC50 of each component were determined using the DPP-IV inhibitor screening assay kit (KA1311, Abnova, Taipei, Taiwan, China). For each component, extracts were mixed with buffer solution at various concentrations (1 mg/mL, 0.1 mg/mL, 0.05 mg/mL, 0.01 mg/mL), DPP-IV, and the substrate (Gly-Pro-AMC solution) in 96-well plates. The reaction was conducted at the normal human body temperature of 37 °C for 30 min. Free AMC (7-amino-4-methylcoumarin) was quantified using a multifunctional fluorescent zymography assay, with excitation light at 350 nm and emission light at 460 nm, and expressed as fluorescence intensity. The positive control utilized was 1 μg/mL of […]. A standard curve for all inhibition rates was plotted, and the maximum half inhibitory concentration (IC50) value of each peptide was determined using GraphPad Prism 9.5.1. DPP-IV inhibition (%) = {(F initial activity − F sample)/F initial activity} × 100%(2)
The DPP-IV inhibitory activity assay was performed in three parallel groups, and IC50 data were expressed as the mean ± standard deviation (S.D.). Data were analyzed using SPSS 20.0 software (SPSS Inc., Chicago, IL, USA) for unifactorial and bifactorial analyses, and the significance of the data was indicated by p < 0.05.

Series [3] addresses T1, DPP-IV. Kind of series: DPP-IV inhibition pattern (Lineweaver–Burk plots). The class given is biochemical. The following applies: substrate 20, 15, 10, 5, 1 μM, peptide greater than IC50, less than IC50, and 0. Here is the method: The pattern of DPP4 inhibition of synthetic peptides was further analyzed using Lineweaver–Burk plots. Images were plotted at different concentrations of substrates (20, 15, 10, 5, 1 μM) and peptide solution (concentration was greater than IC50, less than IC50, and 0) with 1/[S] as the X-value and 1/V as the Y-value. The mode of inhibition of DPP-IV by the synthetic peptide was determined based on the intercept of the Lineweaver–Burk curve.

For series [4] the following is noted: side effects such as nausea; cited from earlier work. From the text:
Diabetes is a chronic disease marked by high blood sugar levels and disruptions in fat and protein metabolism due to insulin resistance and deficiency. It is categorized into three types: type 1, type 2, and gestational diabetes. As reported by the International Diabetes Federation (IDF), approximately 537 million adults (aged 20–79 years) were living with diabetes in 2021, a number expected to rise to 700 million by 2045 [7]. Type 2 diabetes mellitus (T2DM) constitutes about 90% of these cases. Without treatment, T2DM can lead to severe complications such as coronary issues, retinopat ...

Where two headings read alike, the source gives them in different places. Where a SMILES comes first, the peptide text is derived from it.

As a reminder, the IC50 is the midpoint of a concentration-inhibition curve.

T1 sequence (P27487 whole entry): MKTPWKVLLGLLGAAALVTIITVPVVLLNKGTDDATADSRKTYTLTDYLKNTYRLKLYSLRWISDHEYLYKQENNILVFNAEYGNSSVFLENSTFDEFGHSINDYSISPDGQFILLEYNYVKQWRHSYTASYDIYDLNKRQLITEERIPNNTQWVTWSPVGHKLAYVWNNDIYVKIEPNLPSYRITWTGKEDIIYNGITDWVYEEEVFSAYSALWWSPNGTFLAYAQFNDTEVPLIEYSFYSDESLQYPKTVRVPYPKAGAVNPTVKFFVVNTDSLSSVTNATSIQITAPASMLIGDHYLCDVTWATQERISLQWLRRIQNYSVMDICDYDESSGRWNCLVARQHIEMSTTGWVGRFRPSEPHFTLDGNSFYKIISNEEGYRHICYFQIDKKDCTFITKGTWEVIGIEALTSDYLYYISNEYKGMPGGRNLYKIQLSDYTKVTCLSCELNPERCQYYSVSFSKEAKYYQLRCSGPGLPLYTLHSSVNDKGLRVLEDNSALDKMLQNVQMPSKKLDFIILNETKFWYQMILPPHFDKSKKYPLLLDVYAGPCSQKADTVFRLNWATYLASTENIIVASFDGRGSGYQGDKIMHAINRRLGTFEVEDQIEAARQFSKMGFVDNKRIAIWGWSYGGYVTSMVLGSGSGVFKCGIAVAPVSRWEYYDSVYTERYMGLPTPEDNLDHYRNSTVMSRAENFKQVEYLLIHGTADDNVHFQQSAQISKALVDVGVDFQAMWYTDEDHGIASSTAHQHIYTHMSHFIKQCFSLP

With “YPFPGP [previously reported peptide extracted from milk]”, in the series with DPP-IV [1] (extracted from milk), the IC50 was 749 µM.
On to `O=C(CNC(=O)[C@@H]1CCCN1C(=O)[C@@H]1CCCN1)N[C@@H](Cc1ccccc1)C(=O)O` [PPGF] (H-PPGF-OH), for which, at DPP-IV [2], the IC50 was 0.00463 ± 0.00156 µM.
Turning to `CC(C)[C@H](NC(=O)[C@@H](N)Cc1ccccc1)C(=O)N[C@@H](C)C(=O)O` [FVA] (H-Phe-Val-Ala-OH), the “effect on Km” value at DPP-IV [3] is given as “increased Km”. The IC50 at DPP-IV [2] came out at 0.402 ± 0.00528 µM.
Consider `CC(C)C[C@H](NC(=O)CNC(=O)[C@@H]1CCCN1)C(=O)N[C@H](C(=O)NCC(=O)O)C(C)C` [PGLVG] (H-PGLVG-OH), for which the “effect on Km” value on DPP-IV [3] is “Km is increased”. On DPP-IV [2], the IC50 was determined as 0.11 ± 0.0431 µM.
Consider “WGDEHIPGSPYH [previously reported peptide from silver carp]”, for which the IC50 with DPP-IV [1] (from silver carp) was 350 µM.
As to `CC(C)[C@H](N)C(=O)N[C@@H](Cc1ccc(O)cc1)C(=O)N1CCC[C@H]1C(=O)O` [VYP] (H-Val-Tyr-Pro-OH), the IC50 at DPP-IV [2] stood at 0.399 ± 0.0474 µM.
In the case of “YYGYTGAFR [previously reported peptide from Atlantic salmon]”, the IC50 with DPP-IV [1] (from Atlantic salmon) was 1100 µM.
For the molecule “GPAG [peptide (300.4 Da) from pig skin gelatin hydrolysate]”, the IC50 with DPP-IV [1] (peptides from pig skin gelatin hydrolysate) was 41.9 µM.
Turning to IPSK, the DPP-IV inhibitory effect entry at DPP-IV [1] (peptides from milk proteins) is listed as “DPP-IV inhibitory effects”.
As for `CN(C)C(=N)N=C(N)N` [Metformin], in series [4], the “patients suffering from side effects” value is recorded as “around 30%”.
